Laboratory results: paper PMC4292804 (Journal of pharmacokinetics and pharmacodynamics, 2013)
Like-named read-outs stand apart in the source and are kept apart here.

What was measured:
[1] = Docetaxel pharmacokinetic; conditions: 3 mg/kg i.v.
[2] = tested on: tubulin; conditions: determined for colchicine, used for docetaxel; cited from earlier work
[3] = Mdr1a/b constitutive knockout (KO), mouse, in vivo, iv, 3 mg/kg, 12 h
[4] = ref Kemper et al. 46; cited from earlier work
[5] = PBPK model of docetaxel: simulations and parameter estimation; parameters: species or system mice; conditions: for % Difference between observed FVB AUC and predicted FVB AUC / % Difference between observed KO AUC and predicted KO AUC: 100 × (predicted − observed)/observed
[6] = tested on: CYP3A4; conditions: cited from earlier work
[7] = cited from earlier work
[8] = tested on: tubulin; conditions: higher than paclitaxel; cited from earlier work
[9] = tested on: CYP3A4; conditions: PBPK model parameter, KO mouse model; scaled from in vitro Vmax of ref 27
[10] = both FVB and KO mice; intravenous; cannulated gallbladder; cited from earlier work
[11] = tested on: ABCB1; assay: PBPK model: saturable ABCB1; parameters: species or system mice; conditions: value (SD) by parameter estimation, FVB data
[12] = tested on: ABCB1; conditions: homozygous 1236C > T polymorphism in the ABCB1 gene; cited from earlier work
[13] = Docetaxel pharmacokinetic; assay type: in vivo, mice; conditions: for AUC: FVB, mouse, iv, 3 mg/kg
[14] = tested on: CYP3A4; conditions: cited from earlier work; remark: listed apart in the source
[15] = value (SD) by parameter estimation, FVB and KO data

## CC(=O)O[C@@]12CO[C@@H]1C[C@H](O)[C@@]1(C)C(=O)[C@H](O)C3=C(C)[C@@H](OC(=O)[C@H](O)[C@@H](NC(=O)OC(C)(C)C)c4ccccc4)C[C@@](O)([C@@H](OC(=O)c4ccccc4)[C@H]21)C3(C)C [docetaxel, Docetaxel]
[1]; 12 h
  Increase in docetaxel concentration in the liver of KO versus FVB mice: 59%
[1]; during the study (1–12 h)
  Docetaxel plasma concentrations, FVB versus KO mice: did not note differences
[1]; lung, kidney, heart, intestine and brain at 2, 4, 8 and 12 h
  Docetaxel tissue concentration, KO versus FVB mice: statistically significant increase
[2]
  Tubulin binding capacity, Brain (TB_brn): 10,710 nmol/kg
  Tubulin binding capacity, Heart (TB_hrt): 1,970 nmol/kg
  Tubulin binding capacity, Intestine (TB_int): 1,080 nmol/kg
  Tubulin binding capacity, Kidney (TB_kid): 1,470 nmol/kg
  Tubulin binding capacity, Liver (TB_liv): 3,510 nmol/kg
  Tubulin binding capacity, Lung (TB_lng): 2,580 nmol/kg
[3]
  Unchanged docetaxel recovered in the feces: less than 1.5 % of the administered dose
[4]
  Increase in docetaxel exposure in the brain, KO versus FVB mice: +516%
[5]; FVB, value (SD) by parameter estimation
  FVB tubular reabsorption rate constant (K_RABS_fvb): 0.02 (0.001) h^−1
[5]; KO, value (SD) by parameter estimation
  KO tubular reabsorption rate constant (K_RABS_ko): 1.8 (0.001) h^−1
[5]; brain
  % Difference between observed FVB AUC and predicted FVB AUC: −4.3%
  % Difference between observed KO AUC and predicted KO AUC: +14.8%
[5]; heart
  % Difference between observed FVB AUC and predicted FVB AUC: −11.3%
  % Difference between observed KO AUC and predicted KO AUC: +2.9%
[5]; hepatic CYP3A4 metabolism, value (SD) by parameter estimation
  First-order liver metabolism rate constant (K_LMET): 3,664 (1.444) h^−1
[5]; intestinal CYP3A4 metabolism, FVB, value (SD) by parameter estimation
  First-order FVB intestine metabolism rate constant (K_IMET_fvb): 19 (0.008) h^−1
[5]; intestine
  % Difference between observed FVB AUC and predicted FVB AUC: −3.1%
  % Difference between observed KO AUC and predicted KO AUC: +0.2%
[5]; kidney
  % Difference between observed FVB AUC and predicted FVB AUC: +6.3%
  % Difference between observed KO AUC and predicted KO AUC: −0.7%
[5]; liver
  % Difference between observed FVB AUC and predicted FVB AUC: −8.6%
  % Difference between observed KO AUC and predicted KO AUC: +3.0%
[5]; lung
  % Difference between observed FVB AUC and predicted FVB AUC: −7.9%
  % Difference between observed KO AUC and predicted KO AUC: +5.1%
[5]; plasma
  % Difference between observed FVB AUC and predicted FVB AUC: −2.9%
  % Difference between observed KO AUC and predicted KO AUC: +14.8%
[5]; value (SD) by parameter estimation
  Tubulin binding capacity, Slowly perfused (TB_sp): 521 (0.231) nmol/kg
[5]; value (SD) by parameter estimation, FVB
  Partition coefficient FVB intestine:plasma (P_int_fvb): 195 (0.008) Ratio
[5]; [15]
  Partition coefficient Brain:plasma (P_brn): 58 (0.013) Ratio
  Partition coefficient Heart:plasma (P_hrt): 990 (0.231) Ratio
  Partition coefficient Kidney:plasma (P_kid): 995 (0.222) Ratio
  Partition coefficient Liver:plasma (P_liv): 7,088 (1.653) Ratio
  Partition coefficient Lung:plasma (P_lng): 2,376 (0.546) Ratio
  Partition coefficient Slowly perfused:plasma (P_sp): 748 (0.174) Ratio
[5]; value (SD) by parameter estimation, KO
  Partition coefficient KO intestine:plasma (P_int_ko): 397 (33.970) Ratio
[6]; in vitro
  Vmax for CYP3A4 metabolism of docetaxel to M2: 14 pmol/min/mg microsomal protein
[6]; read-out: Km for CYP3A4 metabolism of docetaxel to M2
  Km: 0.6 µM
[7]
  Bound to plasma proteins: 93%
[7]; unbound fraction in the blood
  Fraction of docetaxel unbound to plasma proteins (FU): 0.07
[8]
  Binding affinity relative to paclitaxel: approximately 1.9 fold
[9]
  Saturable KO intestine metabolism Vmax (VMAXM_int_ko): 2,654 nmol/h/kg
[10]
  Unchanged drug recovered in the bile: 3–4 % of the dose
[11]
  PGP transport Brain Vmax (VMAXT_brn): 14,581 (3.232) nmol/h/kg
  PGP transport Heart Vmax (VMAXT_hrt): 14,599 (3.449) nmol/h/kg
  PGP transport Kidney Vmax (VMAXT_kid): 3,003 (0.012) nmol/h/kg
  PGP transport Km (KMT): 28 (0.007) nmol/kg
  PGP transport Lung Vmax (VMAXT_lng): 340,176 (13.151) nmol/h/kg
  PGP transport Slowly perfused Vmax (VMAXT_sp): 10 (0.002) nmol/h/kg
[12]
  Decrease in docetaxel clearance: 25%
[13]; FVB mice, 12 h, 3 mg/kg i.v.
  Unchanged docetaxel recovered in the feces: less than 1.5 % of the administered dose
[13]; brain
  AUC: 0.184 µM·h
[13]; heart
  AUC: 13 µM·h
[13]; intestine
  AUC: 3.21 µM·h
[13]; kidney
  AUC: 14.5 µM·h
[13]; liver
  AUC: 4.34 µM·h
[13]; lung
  AUC: 18.9 µM·h
[13]; plasma
  AUC: 0.523 µM·h
[14]; mice with CYP3A4 expression in only the intestine
  Docetaxel cleared from plasma relative to wild-type mice: 21%
[14]; transgenic mice with no CYP3A4 expression in the liver
  Docetaxel metabolites M1–4 recovered in the small intestine relative to wild-type mice: 13.5%
